This is an account of results in US20060063759A1, “Tricyclic steroid hormone nuclear receptor modulators” (priority 2002, published 2006).

One test concerns the target T1, glucocorticoid receptor (Homo sapiens, UniProt P04150).
T1 construct: containing 50-200 ug of A549 cell extract and 1.86 nM [^3H]-dexamethasone; host or cells: A549 human lung epithelial cells (sonicated cell extract)
T1 sequence (P04150 1-777): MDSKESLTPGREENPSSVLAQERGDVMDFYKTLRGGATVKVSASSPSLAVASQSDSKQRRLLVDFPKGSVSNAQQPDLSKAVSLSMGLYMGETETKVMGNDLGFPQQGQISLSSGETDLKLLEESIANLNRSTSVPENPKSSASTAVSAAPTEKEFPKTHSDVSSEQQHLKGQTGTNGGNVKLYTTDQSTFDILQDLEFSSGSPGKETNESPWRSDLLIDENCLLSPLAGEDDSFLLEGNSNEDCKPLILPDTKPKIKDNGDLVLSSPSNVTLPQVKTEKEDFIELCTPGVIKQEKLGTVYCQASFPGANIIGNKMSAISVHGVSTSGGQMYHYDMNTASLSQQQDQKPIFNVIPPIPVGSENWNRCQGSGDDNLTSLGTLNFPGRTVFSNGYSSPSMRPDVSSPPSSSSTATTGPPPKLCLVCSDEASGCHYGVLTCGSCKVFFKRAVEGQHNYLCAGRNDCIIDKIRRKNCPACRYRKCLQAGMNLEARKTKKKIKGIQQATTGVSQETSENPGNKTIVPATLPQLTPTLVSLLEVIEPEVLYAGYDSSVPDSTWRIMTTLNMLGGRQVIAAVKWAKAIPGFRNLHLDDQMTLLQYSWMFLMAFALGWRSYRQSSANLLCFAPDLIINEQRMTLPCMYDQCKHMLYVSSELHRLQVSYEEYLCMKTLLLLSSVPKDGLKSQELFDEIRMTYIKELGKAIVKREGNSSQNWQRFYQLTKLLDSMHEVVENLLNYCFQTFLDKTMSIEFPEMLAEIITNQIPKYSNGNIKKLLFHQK
As to the kind of experiment: Glucocorticoid Receptor Binding Assay ([3H]-dexamethasone, A549 cell extract). As to conditions: [3H]-dexamethasone binding, read-out: GR Ki. In outline: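 A549 cell extract (50–200 ug) incubated with 1.86 nM [3H]-dexamethasone and test compound for 16 h at 4 °C in Tris-HCl pH 7.2 buffer with glycerol and molybdate. Unbound radioligand removed by dextran-coated charcoal, then supernatant bound counts measured by scintillation.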

Another test addresses T2, human MR (Homo sapiens, UniProt P08235).
T2 construct: The full length human MR gene is cloned from a human kidney or human brain cDNA library; His tag from the pAcHLT vector (own knowledge); made in house; host or cells: Sf9 insect cells (baculovirus, pAcHLT transfer vector)
T2 sequence (P08235 1-984): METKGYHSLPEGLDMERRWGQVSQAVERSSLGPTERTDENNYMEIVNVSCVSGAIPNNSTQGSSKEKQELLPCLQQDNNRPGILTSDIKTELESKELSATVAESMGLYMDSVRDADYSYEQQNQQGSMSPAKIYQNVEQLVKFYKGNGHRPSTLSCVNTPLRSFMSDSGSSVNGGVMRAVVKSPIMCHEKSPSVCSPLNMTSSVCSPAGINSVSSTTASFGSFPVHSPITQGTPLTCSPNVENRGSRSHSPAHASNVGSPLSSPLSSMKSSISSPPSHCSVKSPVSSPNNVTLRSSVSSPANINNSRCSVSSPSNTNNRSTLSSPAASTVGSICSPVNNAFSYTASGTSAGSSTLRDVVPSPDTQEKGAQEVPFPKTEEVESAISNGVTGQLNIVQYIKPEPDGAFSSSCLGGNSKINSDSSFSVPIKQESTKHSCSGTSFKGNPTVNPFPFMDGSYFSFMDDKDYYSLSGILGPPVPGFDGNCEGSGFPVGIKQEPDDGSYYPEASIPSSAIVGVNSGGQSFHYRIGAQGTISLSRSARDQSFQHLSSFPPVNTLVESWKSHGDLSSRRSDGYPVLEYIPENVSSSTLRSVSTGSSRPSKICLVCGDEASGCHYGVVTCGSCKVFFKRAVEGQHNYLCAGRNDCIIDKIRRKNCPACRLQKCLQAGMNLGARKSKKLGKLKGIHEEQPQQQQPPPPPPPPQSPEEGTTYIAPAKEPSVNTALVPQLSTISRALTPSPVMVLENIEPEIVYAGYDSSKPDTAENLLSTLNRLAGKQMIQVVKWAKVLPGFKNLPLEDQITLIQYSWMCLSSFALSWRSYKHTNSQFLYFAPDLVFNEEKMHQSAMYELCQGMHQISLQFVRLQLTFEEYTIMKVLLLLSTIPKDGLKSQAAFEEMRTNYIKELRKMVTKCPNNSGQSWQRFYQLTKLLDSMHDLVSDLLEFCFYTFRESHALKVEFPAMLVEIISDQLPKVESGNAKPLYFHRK
As to the kind of experiment: Mineralocorticoid Receptor Binding Assay ([3H]-aldosterone). Particulars: [3H]-aldosterone binding, human MR expressed in Sf9 cells; read-out: MR Ki. In outline: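 Lysate supernatant of Sf9 cells expressing full-length human MR (20-25 μg protein) was incubated with 0.5 nM [3H]-aldosterone and test compound in molybdate/Tris/phosphate/glycerol buffer, pH 7.5, ~16 h at 4 °C. Bound ligand was filtered and counted by scintillation; IC50 is the concentration halving [3H]-aldosterone binding.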

Usually Ki stands for a dissociation constant, usually derived from enzyme kinetics or from competition with a known ligand.

For `CS(=O)(=O)Nc1cccc(/C=C2\c3ccc(Cl)cc3COc3ccccc32)c1` [Example 725], the Ki on glucocorticoid receptor and on human MR was less than 500 nM each time.
Take `CS(=O)(=O)Nc1cccc(/C=C2/c3ccc(Cl)cc3COc3ccccc32)c1` [Example 726]: the Ki on glucocorticoid receptor and at human MR was less than 500 nM throughout.
As for `CS(=O)(=O)Nc1cccc(/C=C2\c3cc(Cl)ccc3COc3ccccc32)c1` [Example 727], the Ki on glucocorticoid receptor and on human MR was less than 500 nM throughout.
Take `CS(=O)(=O)Nc1cccc(/C=C2/c3cc(Cl)ccc3COc3ccccc32)c1` [Example 728]: the inhibitory constant (Ki) at glucocorticoid receptor and at human MR was less than 500 nM throughout.
Take `CS(=O)(=O)Nc1cccc(/C=C2/c3cc(F)ccc3COc3ccccc32)c1` [Example 729]: the Ki at glucocorticoid receptor and on human MR was less than 500 nM in each case.
For `CS(=O)(=O)Nc1cccc(/C=C2\c3cc(F)ccc3COc3ccccc32)c1` [Example 730], the Ki at glucocorticoid receptor and on human MR was less than 500 nM in each case.
Regarding `CS(=O)(=O)Nc1cccc(/C=C2/c3ccccc3OCc3c(F)cccc32)c1` [Example 731], the inhibition constant (Ki) at glucocorticoid receptor and on human MR was less than 500 nM each time.
Regarding `CS(=O)(=O)Nc1cccc(/C=C2\c3ccccc3OCc3c(F)cccc32)c1` [Example 732], the Ki at glucocorticoid receptor and at human MR was less than 500 nM throughout.
On to `COc1cccc2c1COc1ccccc1[C@H]2Cc1cccc(NS(C)(=O)=O)c1` [Example 733], for which the inhibition constant (Ki) at glucocorticoid receptor and at human MR was less than 500 nM in each case.
Take `COc1ccc2c(c1)COc1ccccc1[C@H]2Cc1cccc(NS(C)(=O)=O)c1` [Example 734]: the inhibitory constant (Ki) on glucocorticoid receptor and on human MR was less than 500 nM in each case.
In the case of `COc1ccc2c(c1)COc1cc(F)ccc1/C2=C\c1cccc(NS(C)(=O)=O)c1` [Example 735], the inhibitory constant (Ki) at glucocorticoid receptor and at human MR was less than 500 nM throughout.
With `COc1ccc2c(c1)COc1cc(F)ccc1/C2=C/c1cccc(NS(C)(=O)=O)c1` [Example 736], the inhibition constant (Ki) on glucocorticoid receptor and on human MR was less than 500 nM throughout.
Take `COc1cccc2c1[C@H](Cc1cccc(NS(C)(=O)=O)c1)c1ccccc1OC2` [Example 737]: the inhibitory constant (Ki) on glucocorticoid receptor and on human MR was less than 500 nM throughout.
For the compound `COc1ccc2c(c1OC)CSc1ccccc1/C2=C/c1cccc(NS(=O)(=O)c2ccccc2)c1` [Example 738], the Ki on glucocorticoid receptor and at human MR was less than 500 nM throughout.
As to `O=S(=O)(Nc1cccc(/C=C2\c3ccccc3CSc3ccccc32)c1)c1ccccc1` [Example 739], the inhibition constant (Ki) at glucocorticoid receptor and on human MR was less than 500 nM each time.
Consider `Cc1ccc2c(c1)CSc1ccccc1C2=Cc1cccc(NS(C)(=O)=O)c1` [Example 740], for which the Ki on glucocorticoid receptor and at human MR was less than 500 nM each time.
For the compound `CS(=O)(=O)Nc1cccc(/C=C2/c3ccccc3CSc3cc(Cl)ccc32)c1` [Example 741], the inhibition constant (Ki) on glucocorticoid receptor and on human MR was less than 500 nM throughout.
Consider `CS(=O)(=O)Nc1cccc(/C=C2\c3ccccc3CSc3cc(Cl)ccc32)c1` [Example 742], for which the Ki at glucocorticoid receptor and at human MR was less than 500 nM in each case.
Take `Cc1ccc2c(c1)CSc1ccccc1/C2=C\c1cccc(NS(C)(=O)=O)c1` [Example 743]: the inhibitory constant (Ki) at glucocorticoid receptor and on human MR was less than 500 nM throughout.
As for `Cc1ccc2c(c1)CSc1ccccc1/C2=C/c1cccc(NS(C)(=O)=O)c1` [Example 744], the Ki at glucocorticoid receptor and at human MR was less than 500 nM in each case.
In the case of `CS(=O)(=O)Nc1cccc(/C=C2/c3ccccc3CSc3cc(F)ccc32)c1` [Example 745], the inhibitory constant (Ki) on glucocorticoid receptor and on human MR was less than 500 nM throughout.
`CS(=O)(=O)Nc1cccc(/C=C2\c3ccccc3CSc3cc(F)ccc32)c1` [Example 746]: the Ki on glucocorticoid receptor and on human MR was less than 500 nM throughout.
With `COc1ccc2c(c1)SCc1ccccc1C2=Cc1cccc(NS(C)(=O)=O)c1` [Example 747], the Ki at glucocorticoid receptor and on human MR was less than 500 nM throughout.
Take `Cc1ccc2c(c1)SCc1ccccc1/C2=C/c1cccc(NS(C)(=O)=O)c1` [Example 748]: the inhibitory constant (Ki) on glucocorticoid receptor and at human MR was less than 500 nM each time.
Turning to `Cc1ccc2c(c1)SCc1ccccc1/C2=C\c1cccc(NS(C)(=O)=O)c1` [Example 749], the Ki on glucocorticoid receptor and at human MR was less than 500 nM in each case.
Regarding `CCOC(=O)C(=C1c2ccccc2CCc2ccccc21)c1cccc(NS(C)(=O)=O)c1` [Example 753, (10,11-Dihydro-dibenzo[a,d]cyclohepten-5-ylidene)-(3-methanesulfonylamino-phenyl)-acetic acid ethy lester], the Ki at glucocorticoid receptor and on human MR was less than 500 nM throughout.
For `CS(=O)(=O)Nc1cccc(C(CO)=C2c3ccccc3CCc3ccccc32)c1` [Example 755, N-{3-[1-(10,11-Dihydro-dibenzo[a,d]cyclohepten-5-ylidene)-2-hydroxy-ethyl]-phenyl}-methanesulfonamide], the inhibition constant (Ki) on glucocorticoid receptor and at human MR was less than 500 nM throughout.
Turning to `CCC(=C1c2ccccc2CCc2ccccc21)c1cccc(N)c1` [Example 760], the Ki at glucocorticoid receptor was less than 10000 nM; at human MR, less than 500 nM.
For the compound `CC(=C1c2ccccc2CCc2ccccc21)c1cccc(N)c1` [Example 761], the Ki at glucocorticoid receptor and on human MR was less than 500 nM each time.
For the compound `CS(=O)(=O)Nc1cccc(C(=C2c3ccccc3CCc3ccccc32)c2ccccc2)c1` [Example 762], the Ki on glucocorticoid receptor and at human MR was less than 500 nM throughout.
As to `CCC(=C1c2ccccc2CCc2ccccc21)c1cccc(NS(C)(=O)=O)c1` [Example 763], the Ki on glucocorticoid receptor and on human MR was less than 500 nM in each case.
Regarding `CC(=C1c2ccccc2CCc2ccccc21)c1cccc(NS(C)(=O)=O)c1` [Example 765], the Ki at glucocorticoid receptor and on human MR was less than 500 nM in each case.
For `Nc1cccc(C(=C2c3ccccc3CCc3ccccc32)c2ccc(-c3ccccc3)cc2)c1` [Example 766], the Ki on glucocorticoid receptor was less than 10000 nM; on human MR it was less than 500 nM.
In the same order, the values of `CS(=O)(=O)Nc1cccc(C(=C2c3ccccc3CCc3ccccc32)c2ccc(-c3ccccc3)cc2)c1` [Example 767] are less than 500 nM and less than 500 nM.
Turning to `COc1ccc(C(=C2c3ccccc3CCc3ccccc32)c2cccc(NS(C)(=O)=O)c2)cc1` [Example 768], the Ki at glucocorticoid receptor is less than 10000 nM; on human MR, less than 500 nM.
On to `CC(=C1c2ccc(C)cc2CCc2cc(C)ccc21)c1cccc(NS(C)(=O)=O)c1` [Example 771], for which the Ki at glucocorticoid receptor and on human MR was less than 500 nM each time.
In the case of `CCC(=C1c2ccc(C)cc2CCc2cc(C)ccc21)c1cccc(NS(C)(=O)=O)c1` [Example 772], the inhibitory constant (Ki) on glucocorticoid receptor and at human MR was less than 500 nM throughout.
`CC(=C1c2ccccc2CCc2cc(C)ccc21)c1cccc(NS(C)(=O)=O)c1` [Example 773]: the Ki on glucocorticoid receptor and on human MR was less than 500 nM in each case.
